Drawing on ChEMBL document CHEMBL1139487, “Discovery of corticotropin releasing factor 2 receptor selective sauvagine analogues for treatment of skeletal muscle atrophy” (J Med Chem, 2005), this text covers EC50 and Emax for six compounds.

Test [1] deals with Corticotropin-releasing factor receptor 2 (Mus musculus, UniProt Q60748). Briefly: In vitro effective concentration for mouse corticotropin releasing factor 2 receptor.
For test [2], the target named is T1, Corticotropin-releasing factor receptor 1 (Mus musculus, UniProt P35347).
T1 sequence (P35347 whole entry): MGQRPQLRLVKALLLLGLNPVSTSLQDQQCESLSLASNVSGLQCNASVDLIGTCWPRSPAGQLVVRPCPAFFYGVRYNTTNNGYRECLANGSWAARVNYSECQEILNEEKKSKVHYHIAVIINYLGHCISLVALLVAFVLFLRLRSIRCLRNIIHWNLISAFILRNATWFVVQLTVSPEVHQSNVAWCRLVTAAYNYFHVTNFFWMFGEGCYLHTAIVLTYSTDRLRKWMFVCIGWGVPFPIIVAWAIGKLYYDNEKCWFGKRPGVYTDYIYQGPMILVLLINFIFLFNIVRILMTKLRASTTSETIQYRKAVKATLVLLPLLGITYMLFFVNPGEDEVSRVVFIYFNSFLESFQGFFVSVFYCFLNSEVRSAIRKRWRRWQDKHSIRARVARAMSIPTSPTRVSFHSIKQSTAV
Nature of the test: In vitro effective concentration for mouse corticotropin releasing factor 1 receptor.

Test [3] concerns the target T2, Corticotropin-releasing factor receptor 1 (Mus musculus) (UniProt P35347).
T2 sequence (whole entry): T1 sequence (P35347 whole entry)
Briefly: In vitro agonistic activity against mouse corticotropin releasing factor 1 receptor. The class given is functional.

Test [4] concerns the target Corticotropin-releasing factor receptor 2 (Mus musculus) (UniProt Q60748). Nature of the test: In vitro agonistic activity against mouse corticotropin releasing factor 2 receptor. The class given is functional.

As a reminder, the EC50 is the concentration needed to bring the measured effect to its halfway point. A low value points to greater potency. One may read the Emax as the maximal effect, on the per cent scale that the assay sets.

Chain of Corticotropin-releasing factor receptor 2 (Mus musculus) (Q60748 whole entry): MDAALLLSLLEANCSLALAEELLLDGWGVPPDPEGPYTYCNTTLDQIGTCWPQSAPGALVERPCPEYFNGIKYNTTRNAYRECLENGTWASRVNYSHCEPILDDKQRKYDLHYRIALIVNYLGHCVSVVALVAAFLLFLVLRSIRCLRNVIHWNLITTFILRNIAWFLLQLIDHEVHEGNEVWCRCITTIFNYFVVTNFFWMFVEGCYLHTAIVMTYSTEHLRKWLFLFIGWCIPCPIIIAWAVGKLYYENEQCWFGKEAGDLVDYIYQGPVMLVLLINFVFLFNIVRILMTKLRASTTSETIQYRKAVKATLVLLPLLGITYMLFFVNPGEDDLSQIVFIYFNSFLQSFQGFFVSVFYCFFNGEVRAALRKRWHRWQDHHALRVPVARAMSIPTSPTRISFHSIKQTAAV
Chain of Corticotropin-releasing factor receptor 2 (Q60748 whole entry): as above

Regarding `CC[C@H](C)[C@H](NC(=O)[C@@H](NC(=O)[C@H](CC(=O)O)NC(=O)[C@H](CC(C)C)NC(=O)[C@H](CC(C)C)NC(=O)[C@H](CC(C)C)NC(=O)[C@H](CCCNC(=N)N)NC(=O)[C@H](CC(N)=O)NC(=O)[C@H](CC(N)=O)NC(=O)[C@H](C)NC(=O)[C@H](C)NC(=O)[C@H](CCC(N)=O)NC(=O)[C@H](CCC(N)=O)NC(=O)[C@H](CCCCN)NC(=O)[C@H](CCC(=O)O)NC(=O)[C@H](CCCCN)NC(=O)[C@H](CCC(=O)O)NC(=O)[C@H](CCC(N)=O)NC(=O)[C@H](CCCCN)NC(=O)[C@H](CCC(=O)O)NC(=O)[C@@H](NC(=O)[C@H](CCC(=O)O)NC(=O)[C@@H](NC(=O)[C@H](CCSC)NC(=O)[C@H](CCCCN)NC(=O)[C@H](CCCNC(=N)N)NC(=O)[C@H](CC(C)C)NC(=O)[C@H](CC(C)C)NC(=O)[C@H](CCC(N)=O)NC(=O)[C@H](Cc1ccccc1)NC(=O)[C@@H]1CCCN1C(=O)[C@H](CC(C)C)NC(=O)[C@H](CC(=O)O)NC(=O)[C@@H](NC(=O)[C@H](CO)NC(=O)[C@@H](NC(=O)[C@@H]1CCCN1C(=O)[C@@H]1CCCN1C(=O)CNC(=O)[C@@H]1CCC(=O)N1)[C@@H](C)CC)[C@@H](C)CC)[C@@H](C)CC)[C@@H](C)CC)[C@@H](C)O)C(=O)O`, the EC50 in test [1] was 1.8 nM; in test [2], 112 nM. In the same order, the values of `CC[C@H](C)[C@H](NC(=O)[C@@H](NC(=O)[C@H](CC(=O)O)NC(=O)[C@H](CC(C)C)NC(=O)[C@H](CC(C)C)NC(=O)[C@H](CC(C)C)NC(=O)[C@H](CCCNC(=N)N)NC(=O)[C@H](CC(N)=O)NC(=O)[C@H](CC(N)=O)NC(=O)[C@H](C)NC(=O)[C@H](C)NC(=O)[C@H](CCC(N)=O)NC(=O)[C@H](CCC(N)=O)NC(=O)[C@H](CCCCN)NC(=O)[C@H](CCC(=O)O)NC(=O)[C@H](CCCCN)NC(=O)[C@H](CCC(=O)O)NC(=O)[C@H](CCC(N)=O)NC(=O)[C@H](CCCCN)NC(=O)[C@H](CCC(=O)O)NC(=O)[C@@H](NC(=O)[C@H](CCC(=O)O)NC(=O)[C@@H](NC(=O)[C@H](CCSC)NC(=O)[C@H](CCCCN)NC(=O)[C@H](CCCNC(=N)N)NC(=O)[C@H](CC(C)C)NC(=O)[C@H](CC(C)C)NC(=O)[C@H](CC(C)C)NC(=O)[C@H](CC(C)C)NC(=O)[C@@H]1CCCN1C(=O)[C@H](CC(C)C)NC(=O)[C@H](CC(=O)O)NC(=O)[C@@H](NC(=O)[C@H](CO)NC(=O)[C@@H](NC(=O)[C@@H]1CCCN1C(=O)[C@@H]1CCCN1C(=O)CNC(=O)[C@@H]1CCC(=O)N1)[C@@H](C)CC)[C@@H](C)CC)[C@@H](C)CC)[C@@H](C)CC)[C@@H](C)O)C(=O)O` are 7.4 nM and 162 nM. Regarding “H-IVLSLDVPIGLLQILLEQARARAAREQATTNARILARV-OH”, the results for the maximal response (Emax) in test [3] and in test [4] were 8% and 96%, respectively.

Regarding `CC[C@H](C)[C@H](NC(=O)[C@@H](NC(=O)[C@H](CCC(=O)O)NC(=O)[C@H](CCSC)NC(=O)[C@H](CC(C)C)NC(=O)[C@H](CCCCN)NC(=O)[C@H](CCCNC(=N)N)NC(=O)[C@H](CC(N)=O)NC(=O)[C@H](CO)NC(=O)[C@H](Cc1c[nH]cn1)NC(=O)[C@H](C)NC(=O)[C@H](CCC(N)=O)NC(=O)[C@H](CCC(N)=O)NC(=O)[C@H](C)NC(=O)[C@H](CC(C)C)NC(=O)[C@H](CCC(N)=O)NC(=O)[C@H](CCC(=O)O)NC(=O)[C@H](C)NC(=O)[C@H](CCCNC(=N)N)NC(=O)[C@H](C)NC(=O)[C@H](CCSC)NC(=O)[C@H](CCC(=O)O)NC(=O)[C@H](CC(C)C)NC(=O)[C@@H](NC(=O)[C@H](CCC(=O)O)NC(=O)[C@H](CCCNC(=N)N)NC(=O)[C@H](CC(C)C)NC(=O)[C@H](CC(C)C)NC(=O)[C@H](Cc1c[nH]cn1)NC(=O)[C@H](Cc1ccccc1)NC(=O)[C@@H](NC(=O)[C@H](CC(C)C)NC(=O)[C@H](CC(=O)O)NC(=O)[C@H](CC(C)C)NC(=O)[C@H](CO)NC(=O)[C@@H](NC(=O)[C@@H]1CCCN1C(=O)[C@@H]1CCCN1C(=O)[C@H](CCC(=O)O)NC(=O)[C@H](CCC(=O)O)NC(=O)[C@@H](N)CO)[C@@H](C)CC)[C@@H](C)O)C(C)C)[C@@H](C)CC)C(N)=O` [HUMAN CORTICOTROPIN RELEASING FACTOR], the EC50 in test [2] worked out at 20 nM.

For `CC[C@H](C)[C@H](NC(=O)[C@@H](NC(=O)[C@H](CCC(=O)O)NC(=O)[C@H](CCSC)NC(=O)[C@H](CC(C)C)NC(=O)[C@H](CCCCN)NC(=O)[C@H](CCCN=C(N)N)NC(=O)[C@H](CC(N)=O)NC(=O)[C@H](CO)NC(=O)[C@H](Cc1c[nH]cn1)NC(=O)[C@H](C)NC(=O)[C@H](CCC(N)=O)NC(=O)[C@H](CCC(N)=O)NC(=O)[C@H](C)NC(=O)[C@H](CC(C)C)NC(=O)[C@H](CCC(N)=O)NC(=O)[C@H](CCC(=O)O)NC(=O)[C@H](C)NC(=O)[C@H](CCCN=C(N)N)NC(=O)[C@H](C)NC(=O)[C@H](CCSC)NC(=O)[C@H](CCC(=O)O)NC(=O)[C@H](CC(C)C)NC(=O)[C@@H](NC(=O)[C@H](CCC(=O)O)NC(=O)[C@H](CCCN=C(N)N)NC(=O)[C@H](CC(C)C)NC(=O)[C@H](CC(C)C)NC(=O)[C@H](Cc1c[nH]cn1)NC(=O)[C@H](Cc1ccccc1)NC(=O)[C@@H](NC(=O)[C@H](CC(C)C)NC(=O)[C@H](CC(=O)O)NC(=O)[C@H](CC(C)C)NC(=O)[C@H](CO)NC(=O)[C@@H](NC(=O)[C@@H]1CCCN1C(=O)[C@@H]1CCCN1C(=O)[C@H](CCC(=O)O)NC(=O)[C@H](CCC(=O)O)NC(=O)[C@@H](N)CO)[C@@H](C)CC)[C@@H](C)O)C(C)C)[C@@H](C)CC)C(=O)O`, the Emax was 87% in test [3] and 82% in test [4]. The matching figures for `CC[C@H](C)[C@H](NC(=O)[C@@H](NC(=O)[C@H](CC(=O)O)NC(=O)[C@H](CC(C)C)NC(=O)[C@H](CC(C)C)NC(=O)[C@H](CC(C)C)NC(=O)[C@H](CCCN=C(N)N)NC(=O)[C@H](CC(N)=O)NC(=O)[C@H](CC(N)=O)NC(=O)[C@H](C)NC(=O)[C@H](C)NC(=O)[C@H](CCC(N)=O)NC(=O)[C@H](CCC(N)=O)NC(=O)[C@H](CCCCN)NC(=O)[C@H](CCC(=O)O)NC(=O)[C@H](CCCCN)NC(=O)[C@H](CCC(=O)O)NC(=O)[C@H](CCC(N)=O)NC(=O)[C@H](CCCCN)NC(=O)[C@H](CCC(=O)O)NC(=O)[C@@H](NC(=O)[C@H](CCC(=O)O)NC(=O)[C@@H](NC(=O)[C@H](CCSC)NC(=O)[C@H](CCCCN)NC(=O)[C@H](CCCN=C(N)N)NC(=O)[C@H](CC(C)C)NC(=O)[C@H](CC(C)C)NC(=O)[C@H](CCC(=O)O)NC(=O)[C@H](CC(C)C)NC(=O)[C@H](CO)NC(=O)[C@H](CC(C)C)NC(=O)[C@H](CC(=O)O)NC(=O)[C@@H](NC(=O)[C@H](CO)NC(=O)[C@@H](NC(=O)[C@@H]1CCCN1C(=O)[C@@H]1CCCN1C(=O)CNC(=O)[C@@H]1CCC(=O)N1)[C@@H](C)CC)[C@@H](C)CC)[C@@H](C)CC)[C@@H](C)CC)[C@@H](C)O)C(=O)O` [SAUVAGINE]: 99% and 95%.
